Source: US6064908A, “Device for ionophoresis comprising at least a membrane electrode assembly, for the transcutaneous administration of active principles to a subject” (Elf Aquitaine, priority 1996, dated 2000)

Test system: nude rat skin
Experiment: transdermic passage of pentasaccharide sodium salt by iontophoresis at set intensity through nude rat skin
Type: in vitro ADME
Conditions: for Utilization factor of the active principle: quantity at 22 hours/initial quantity
Method: The procedure was carried out in iontophoresis cells with identical structure. Each iontophoresis cell consisted of three coaxial, adjacent cylindrical compartments of 2 cm^2 cross section, namely, in this order, a donor compartment, a receiver compartment and a back electrode compartment, these three compartments each being separated from the next in leaktight fashion by a piece of nude rat skin from the same batch, serving as a skin sample for studying the transdermic diffusion. […] The receiver compartment, with a volume of 10 ml, contained a 9 g/liter solution of NaCl and was agitated using a magnetic bar. The back electrode compartment, with a volume of 0.5 ml, contained a 2% by weight aqueous solution of NaCl. At its end opposite the receiver compartment, the donor compartment was fitted with a negative electrode or cathode consisting of a 15 μm thick film of silver chloridized on one face to contain an AgCl layer corresponding to 2 mAh/cm^2. In the same way as the donor compartment, the back electrode compartment was equipped with a positive electrode or anode (back electrode) consisting of a 15 μm silver film weakly chloridized on the surface (a quantity of AgCl corresponding to 0.1 mAh/cm^2). The chloridized face of each electrode was turned towards the rat skin sample.
The rat skin samples had had the subcutaneous tissues removed and were preserved by freezing at -40° C. until they were fitted in the iontophoresis cell, with the dermal faces turned towards the receiver compartment, after having spent 15 minutes in physiological salt solution.
For each of the tests which were carried out, six identical iontophoresis cells were started up simultaneously. The active exchange surface was 2 cm^2 for each skin sample. […]
At the end of the said period, an aliquot of the medium contained in the receiver compartment was taken, and the quantity of pentasaccharide which had passed through the skin separating the donor and receiver compartments of each cell was determined by assaying. A second sample was taken 22 hours after the start of each experiment, i.e. 17 hours after the end of the electric signal, in order to allow a significant proportion of the quantities of pentasaccharide active principle held in the skin sample to diffuse in the absence of subcutaneous blood circulation.
Five tests 1a to 1e were carried out as follows:
For each of the tests, the average antifactor Xa activity per ml of medium was determined on aliquots taken from the receiver compartments of the six cells, this representing the quantity of pentasaccharide which had diffused into these compartments after the 5 hours of applying the current and 22 hours after the start of each experiment, i.e. 17 hours after the end of the said current.
The assay of the pentasaccharide in the receiver compartment was based on investigating its antifactor Xa activity. […] The calibration curve was established using a "Golden Standard" pentasaccharide solution to which an antifactor Xa activity equal to 13 units per ml was assigned.
The data presented in this table are average results calculated over a series of six identical cells receiving the same quantities of electricity.

[1] = Test 1a: no membrane, 5 mg/cm^2, 1 mAh/cm^2
[2] = Test 1b: no membrane, 1 mg/cm^2, 1 mAh/cm^2
[3] = Test 1c: cellulose acetate/POEG membrane 75 μm, 1 mg/cm^2, 0.9 mAh/cm^2
[4] = Test 1e: PEBAX MV 1074 membrane 50 μm, hydrogel, 0.5 mg/cm^2, 1 mAh/cm^2
[5] = Test 1d (PEBAX MV 1041 membrane) vs Test 1b (no membrane)
[6] = Test 1d: PEBAX MV 1041 membrane 50 μm, 1 mg/cm^2, 1 mAh/cm^2

Quantity of active principle at 5 hours (Passive, no current, 5 mg/cm^2): 1 μg/cm^2 | Quantity of active principle at 22 hours (Passive, no current, 5 mg/cm^2): 1.5 μg/cm^2 | Quantity of active principle per mAh (Passive, no current, 5 mg/cm^2): 1.5 μg/cm^2 | aXa activity/ml at 5 hours (Passive, no current, 5 mg/cm^2): 0.2 mL⁻¹ | aXa activity/ml at 22 hours (Passive, no current, 5 mg/cm^2): 0.3 mL⁻¹ | Utilization factor of the active principle (Passive, no current, 5 mg/cm^2): 0.03% | Quantity of active principle at 5 hours [1]: 115 μg/cm^2 | Quantity of active principle at 22 hours [1]: 150 μg/cm^2 | Quantity of active principle per mAh [1]: 150 μg/cm^2 | aXa activity/ml at 5 hours [1]: 23 mL⁻¹ | aXa activity/ml at 22 hours [1]: 30 mL⁻¹ | Utilization factor of the active principle [1]: 3% | Quantity of active principle at 5 hours [2]: 110 μg/cm^2 | Quantity of active principle at 22 hours [2]: 140 μg/cm^2 | Quantity of active principle per mAh [2]: 140 μg/cm^2 | aXa activity/ml at 5 hours [2]: 22 mL⁻¹ | aXa activity/ml at 22 hours [2]: 28 mL⁻¹ | Utilization factor of the active principle [2]: 14% | Quantity of active principle at 5 hours [3]: 75 μg/cm^2 | Quantity of active principle at 22 hours [3]: 110 μg/cm^2 | Quantity of active principle per mAh [3]: 125 μg/cm^2 | aXa activity/ml at 5 hours [3]: 15 mL⁻¹ | aXa activity/ml at 22 hours [3]: 20 mL⁻¹ | Utilization factor of the active principle [3]: 11% | Quantity of active principle at 5 hours [4]: 245 μg/cm^2 | Quantity of active principle at 22 hours [4]: 310 μg/cm^2 | Quantity of active principle per mAh [4]: 310 μg/cm^2 | aXa activity/ml at 5 hours [4]: 49 mL⁻¹ | aXa activity/ml at 22 hours [4]: 62 mL⁻¹ | Utilization factor of the active principle [4]: 62% | active principle depletion factor of the donor electrode assembly (in words) [5]: increased very substantially | quantity of active principle administered per unit quantity of electricity (in words) [5]: increased very substantially | Quantity of active principle at 5 hours [6]: 295 μg/cm^2 | Quantity of active principle at 22 hours [6]: 390 μg/cm^2 | Quantity of active principle per mAh [6]: 390 μg/cm^2 | aXa activity/ml at 5 hours [6]: 59 mL⁻¹ | aXa activity/ml at 22 hours [6]: 70 mL⁻¹ | Utilization factor of the active principle [6]: 39% | passive transport of the pentasaccharide (in words) (no current): very low
SMILES: O=C(O)C1OC(OC2C(COS(=O)(=O)O)OC(OC3C(C(=O)O)OC(OC4C(COS(=O)(=O)O)OC(O)C(NS(=O)(=O)O)C4O)C(OS(=O)(=O)O)C3O)C(NS(=O)(=O)O)C2OS(=O)(=O)O)C(O)C(O)C1OC1OC(COS(=O)(=O)O)C(O)C(O)C1NS(=O)(=O)O (stereo not drawn) [pentasaccharide]
